The assay relates to CEM cells HIV-1 protection, formazan growth assay. The assay can be described thus: NCI AIDS Antiviral Assay. Conditions: for IC50: measured here: growth of uninfected CEM cells. A digest of the protocol:
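Category rules: moderately active means at least 50% protection on retest, and confirmed active means 100% protection reproducibly. The underlying data came from a formazan growth assay in HIV-1-infected CEM cells.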

Molecules are shown by their SMILES. Values joined by “and” are separate entries in the source; they are usually repeats but may differ in a detail not shown here. Equal values may be shown once. Active and inactive are the calls of the source.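 How the source made its calls: active means compounds giving half or more protection of infected cells from virus-caused growth loss, again on retest; inactive means the rest.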 Where a SMILES comes first, the peptide text is derived from it. The star is where a group is joined. Boc = CC(C)(C)OC(=O)*; Bn = c1ccc(C*)cc1

With `Cc1ccc(NC(=O)/C(CC(=O)c2c[n+](=O)c3ccccc3n2O)=N\NC(=O)C[n+]2ccccc2)cc1`, the EC50 was > 43.7 µM and the half-maximal inhibitory concentration (IC50) is > 43.7 µM.
With `O=C(/C=C/c1ccccc1)NC1C=Nc2ccc([N+](=O)[O-])cc2NC1=O` (centres undefined), the EC50 was > 102 µM and the IC50 was 93.3 µM.
The corresponding values for `CC(C)C(OC(=O)c1cc(NC(=S)c2ccccc2)ccc1Cl)C(C)C` are 0.437 µM and 11.7 µM.
Turning to `OC(C#CCN1CCCC1)(c1ccccc1)c1ccccc1Cl` (centres undefined), the EC50 is > 200 µM and the half-maximal inhibitory concentration (IC50) stood at 70.8 µM.
`COC(=O)/C=C(/C=C1/C(C#N)=C(N)N(c2ccc(Cl)cc2)C1(C)/C(=C/C(=O)OC)C(=O)OC)C(=O)OC` (centres undefined): the EC50 is > 200 µM and the IC50 came out at 23.4 µM.
As for `CC(=S)N/C=C/c1c(C(=O)O)cc([N+](=O)[O-])cc1[N+](=O)[O-]`, the outcome was inactive.
In the case of `CSCCC(NP(=S)(c1ccccc1)c1ccccc1)C(=O)O` (centres undefined), the EC50 was > 200 µM and the IC50 is > 200 µM.
Turning to `CC1(CO)COS(=O)OC1` (centres undefined), the EC50 is > 214 µM and the IC50 is > 214 µM.
As to `CC(C)(C)OC(=O)N1CCCC1C(=O)NC(c1ccccc1)c1ccccc1` (centres undefined), the EC50 was > 200 µM and the IC50 is > 200 µM.
Turning to `O=C1NC(=O)C(=O)C(c2nc3ccccc3s2)C1=O`, the result was inactive.
For the molecule `CN1/C(=C/C=C/C=C/C=C2C(=O)c3ccccc3C2=O)C(C)(C)c2ccccc21`, the EC50 is 120 µM and the IC50 is 151 µM.
The corresponding values for `O=C1CC2O[C@H](c3ccccc3)OC2CO1` (some centres undefined) are > 200 µM and 93.3 µM.
The like results for `Cc1cc(C)n(C(C)(C(=O)Cc2ccccc2)n2nc(C)cc2C)n1` were, in that order, > 200 µM and > 200 µM.
The corresponding values for `CCOC(=O)/C(=C\n1c(=S)[nH]c2cc(C)ccc21)C(=O)c1ccccc1` are > 100 µM and > 100 µM.
Consider `O=C(OCCN=C1c2ccccc2CCc2ccccc21)c1cc([N+](=O)[O-])cc([N+](=O)[O-])c1`, for which the EC50 is > 200 µM and the IC50 was 70.8 µM.
On to `CCN(CC)CCOC(=O)c1cc2cc([N+](=O)[O-])ccc2oc1=O`, for which the EC50 is > 214 µM and the IC50 is > 214 µM.
Take `CC(=O)Nc1cc(=O)[nH]c2c1CCC2`: the result was inactive.
`Cc1cc2[n-]c1/C=c1\[n-]/c(c(CCC(=O)O)c1C)=C\c1[n-]c(c(C)c1CCC(=O)O)/C=c1/cc(C)/c([n-]1)=C/2.[Ni]`: the EC50 is > 9.12 µM.
With `O=P(O)(O)c1ccc(-c2ccc(I)cc2)cc1`, the EC50 was > 200 µM and the half-inhibitory concentration (IC50) is > 200 µM.
As to `O=c1nc(NC(c2ccccc2)(c2ccccc2)c2ccccc2)ccn1CCNCCn1ccc(NC(c2ccccc2)(c2ccccc2)c2ccccc2)nc1=O`, the EC50 is > 9.33 µM and the IC50 was > 9.33 µM.
For `COc1ccc(NC(=O)CC(=O)Nc2ccc(OC)cc2)cc1`, the EC50 is 170 µM and the IC50 is > 200 µM.
With `Cn1c(-c2cccs2)cc(-c2ccccc2)c1-c1cccs1`, the EC50 was > 200 µM and the IC50 was > 200 µM.
For the molecule `COc1cc(/C=C/C(=O)CC(=O)/C=C/c2ccc(O)c(OC)c2)ccc1O`, the EC50 was > 200 µM; the half-inhibitory concentration (IC50) is 19.1 µM and 75.9 µM.
In the case of `C[CH2][Sn]([Cl])([Cl])[CH2]C`, the result was inactive.
In the case of `NC(=O)NNC(=O)c1nc[nH]c1[N+](=O)[O-]`, the EC50 is > 200 µM and the IC50 was > 200 µM.
For `CC(C)(C)[Si](C)(C)OCC1OC(n2cnc3c(=O)[nH]c(NCc4cccc5ccccc45)nc32)C(O[Si](C)(C)C(C)(C)C)C1O[Si](C)(C)C(C)(C)C` (centres undefined), the EC50 was > 200 µM and the IC50 is > 200 µM.
In the case of `C(=Nc1ccc(-c2cc(-c3ccccc3)nc3ccc4ccccc4c23)cc1)c1ccccc1`, the EC50 was > 200 µM and the IC50 worked out at 31.6 µM.
As for `Cn1c(=O)c(NC(=O)C(Cl)(Cl)Cl)nc2ccccc21`, the EC50 was > 93.3 µM and the 50% inhibitory concentration (IC50) was > 93.3 µM.
Consider `C=C1[C@@H](OC(C)=O)[C@H]2[C@@H](OC(C)=O)[C@@](C)(OC(C)=O)C[C@]2(OC(C)=O)C(=O)[C@@H](C)/C=C/C(C)(C)C(=O)C[C@H]1OC(C)=O`, for which the EC50 was > 200 µM and the IC50 is 72.4 µM.
The corresponding values for `CC(C)(C)[Si](C)(C)OCC1OC(n2cnc3c(=O)[nH]c(NC(=O)c4ccccc4)nc32)C(O[Si](C)(C)C(C)(C)C)C1O[Si](C)(C)C(C)(C)C` (centres undefined) are > 200 µM and 9.12 µM.
The corresponding values for `CCC(C)(C)c1ccc(OCCCCNC(=O)c2ccc3ccccc3c2O)c(C(C)(C)CC)c1` are > 200 µM and 7.41 µM.
The corresponding values for `O=[N+]([O-])c1cccnc1NCC1(CO)CCCC1` are > 200 µM and 46.8 µM.
For `CC1(C)C2CCC1(C)C(NC(=O)COCCOCC(N)=O)C2` (centres undefined), the EC50 was > 83.2 µM and the 50% inhibitory concentration (IC50) worked out at 41.7 µM.
The like results for `CSC1=C(C(=O)N(COCC[Si](C)(C)C)c2ccccc2Br)CCC(C(C)(C)C)C1` (centres undefined) were, in that order, > 200 µM and 17.8 µM.
As for `CCC[CH2][Sn]1([CH2]CCC)[O]C(=O)c2cc(I)cc(I)c2[O]1`, the result was inactive.
On the same count and under the same terms, the result for `Cn1cccc(C(=O)c2ccccc2)c1=O` reads “inactive”.
As to `CC(C)(C)c1ccc(O)c(Cc2cc(C(C)(C)C)cc(Cc3cc(C(C)(C)C)ccc3O)c2O)c1`, the EC50 is > 39.8 µM and the half-inhibitory concentration (IC50) was found to be 12.9 µM.
The corresponding values for `CN(C)c1ccc(/C=C/C=C\C2=CC(=C\C=C/C=C3C=CC(=[N+](C)C)C=C3)/Sc3ccccc32)cc1` are > 1.78 µM and > 1.78 µM.
As for `CN(C)Cc1cc(C(=O)/C=C/c2ccc(Cl)cc2Cl)cc(CN(C)C)c1O`, the EC50 is > 200 µM and the IC50 was determined as 3.8 µM.
The like results for `Cc1n(CC(=O)c2ccccc2)nc2sc(N)n[n+]12` were, in that order, > 200 µM and 123 µM.
The like results for `CCN(C)c1nc(N(C)CC)c2nc(N(C)CC)nc(N(C)CC)c2n1` were, in that order, > 501 µM and 120 µM.
The corresponding values for `O=C1C=CC(=O)c2cc(Sc3ccccc3)c(=O)ccc21` are > 123 µM and 1.26 µM.
In the case of `Cn1c(=O)sc2cc(C(=S)N3CCC(Cc4ccccc4)CC3)ccc21`, the EC50 is > 200 µM and the IC50 was 36.3 µM.
The like results for `O=C(O)CCC(NC(=O)c1ccc(CNc2nc3cc(C(F)(F)F)ccc3nc2C(=O)O)cc1)C(=O)O` (centres undefined) were, in that order, > 200 µM and > 200 µM.
The like results for `CCC1COS(=O)(=O)CS(=O)(=O)O1` (centres undefined) were, in that order, > 1070 µM and 1020 µM.
The like results for `COc1cc([C@@H]2c3cc(O)c(OC)cc3C=C(C(N)=O)[C@H]2C(N)=O)ccc1O` were, in that order, > 0.2 µM and 0.0102 µM.
For the molecule `CNC(=O)C(CC(C)C)NC(=O)C(C)NC(=O)C(Cc1ccc(OCc2ccccc2)cc1)NC(=O)C(COCc1ccccc1)NC(=O)OC(C)(C)C` (centres undefined) (Boc-S(Bn)Y(Bn)AL-NHMe; configuration not given here), the EC50 was > 200 µM; the IC50 was 9.55 µM and 13.5 µM.
With `Cc1noc(C)c1C1=CCCCc2ccccc21`, the EC50 is > 30.2 µM and the IC50 is > 30.2 µM.
Turning to `O=C1c2ccccc2C(=O)c2nc3ccc(Cl)cc3cc21`, the EC50 is > 6.17 µM and the IC50 was > 6.17 µM.
Take `Cn1c(N)c(N=O)c(=O)n(C)c1=S`: the EC50 is > 200 µM and the IC50 is > 200 µM.
For the molecule `COc1ccc(/C=N/n2cnc3c(sc(=S)n3-c3ccccc3)c2=O)cc1`, the EC50 is > 6.92 µM and the IC50 was > 6.92 µM.
Take `COc1cccc2c1OC(=O)C(S(=O)(=O)c1ccccc1)C2` (centres undefined): the EC50 is > 562 µM and the IC50 was > 562 µM.
With `OC(CC(O)(C(F)(F)F)C(F)(F)F)c1cccs1` (centres undefined), the EC50 is > 200 µM and the IC50 was 93.3 µM.
The like results for `CC(=O)NC(=O)NC1=NCCC(=O)N1CCc1c[nH]c2ccccc12` were, in that order, > 200 µM and > 200 µM.
The corresponding values for `O=c1c(O)c(O)c1=O.[NH2-].[NH2-].[NH2-].[NH2-].[NH2-].[Ru+5]` are > 21.4 µM and > 21.4 µM.
The like results for `CC1CC(=O)N2CCCNC2=C1C#N` (centres undefined) were, in that order, > 200 µM and > 200 µM.
For `Nc1nc2c(ncn2C2CCC(CO)OC2)c(=O)[nH]1` (centres undefined), the EC50 is 145 µM and the IC50 is > 200 µM.
The corresponding values for `C=CCNc1nc2c(s1)c(C)c(O)c1ccccc12` are > 200 µM and 3.55 µM.
As to `COC(=O)C1Cc2c(n(C)c3ccccc23)C(CCC(=O)O)N1Cc1ccccc1` (centres undefined), the result was inactive.
As to `NCC(=O)Nc1ccc(S(=O)(=O)O)c2cc(S(=O)(=O)O)cc(S(=O)(=O)O)c12`, the EC50 was > 200 µM and the IC50 was > 200 µM.
As to `Cc1ccnc2nc3[nH]c4ccccc4c3cc12`, the EC50 is > 126 µM and the IC50 is > 126 µM.
In the case of `COC(=O)C(=O)C(C(=O)C(=O)Nc1ccccc1C(N)=O)c1nc2ccc([N+](=O)[O-])cc2[nH]c1=O` (centres undefined), the EC50 is > 525 µM and the IC50 turned out to be 372 µM.
The like results for `CC#CCCC1CCCCN(C(=O)OC)C1OCC` (centres undefined) were, in that order, > 933 µM and 166 µM.
Take `O=C(N/N=C\C(F)(F)F)c1ccncc1`: the EC50 is > 200 µM and the IC50 worked out at 3.55 µM.
Take `CCCCCCCCCCCCCCCC[N+](C)(C)CCCS(=O)(=O)[O-]`: the result was inactive.
As to `O=c1[nH]c(=O)n(C2OC(CO)C(O)C2O)cc1OCCc1ccccc1` (centres undefined), the EC50 was > 200 µM and the half-inhibitory concentration (IC50) was > 200 µM.
For the molecule `COc1ccc(C2=Cc3nc2c(-c2ccccc2)c2ccc([nH]2)c(-c2ccccc2)c2nc(c(-c4ccccc4)c4ccc([nH]4)c3-c3ccccc3)C=C2)cc1`, the EC50 is > 100 µM and the IC50 is > 100 µM.
Regarding `CC1CCCN2C(=O)CN(C3CCCCC3)CC(=O)N12` (centres undefined), the EC50 was > 200 µM and the IC50 was > 200 µM.
As for `CCOP(=O)(OCC)/C(=C\NC(=S)N=Nc1c(O)[nH]c2ccccc12)C(=O)OC`, the EC50 is > 200 µM and the IC50 turned out to be 117 µM.

The EC50 is the concentration at which the effect is half-maximal. Usually IC50 stands for the concentration needed to halve the response being measured.

The values are drawn from PubChem BioAssay AID179 (DTP/NCI, 2004).
